Experimental data reported in ChEMBL document CHEMBL1126634, “Cyclic sulfolanes as novel and high affinity P2 ligands for HIV-1 protease inhibitors” (J Med Chem, 1993).

Experiments:
[1] = target: Human immunodeficiency virus type 1 protease (Human immunodeficiency virus 1) (UniProt Q72874); test: Antiviral potency of HIV-1 in MT-4 human T lymphoid cells with IIIb isolate; assay type: functional, cell-based
[2] = target: Human immunodeficiency virus type 1 protease (Human immunodeficiency virus 1, UniProt Q72874); test: Tested against S2-binding site of HIV-1 protease
MT4 = test: Compound tested for the antiviral potency of HIV-1 in MT-4 human T lymphoid cells with IIIb isolate (n=5); assay type: functional; settings: read-out: CIC95

Structure (SMILES) | IC95 [1] [µM] | IC50 [2] [µM] | IC95 (MT4) [µM]
CC(C)(C)NC(=O)[C@@H]1C[C@@H]2CCCC[C@@H]2CN1C[C@@H](O)[C@H](Cc1ccccc1)NC(=O)O[C@@H]1CCS(=O)(=O)C1 | > 0.8 | 0.14 | 
CC(C)C[C@@H]1[C@H](OC(=O)N[C@@H](Cc2ccccc2)[C@H](O)CN2C[C@H]3CCCC[C@H]3C[C@H]2C(=O)NC(C)(C)C)CCS1(=O)=O | 1.5 | 0.03 | 
CC(C)[C@H]1SCC[C@H]1OC(=O)N[C@@H](Cc1ccccc1)[C@H](O)CN1C[C@H]2CCCC[C@H]2C[C@H]1C(=O)NC(C)(C)C |  | 0.009 | 
CC(C)(C)NC(=O)[C@@H]1C[C@@H]2CCCC[C@@H]2CN1C[C@@H](O)[C@H](Cc1ccccc1)NC(=O)O[C@H]1CCOC1 | 0.8 |  | 
NC(=O)OC[C@@H]1CCCOC1 |  | 0.694 | 
CC(C)[C@@H]1[C@H](OC(=O)N[C@@H](Cc2ccccc2)[C@H](O)CN2C[C@H]3CCCC[C@H]3C[C@H]2C(=O)NC(C)(C)C)CCS1(=O)=O | 0.05 | 0.003 | 
CC[C@@H]1[C@H](OC(=O)N[C@@H](Cc2ccccc2)[C@H](O)CN2C[C@H]3CCCC[C@H]3C[C@H]2C(=O)NC(C)(C)C)CCS1(=O)=O | 0.8 | 0.0131 | 
C[C@H]1OCC[C@H]1OC(=O)N[C@@H](Cc1ccccc1)[C@H](O)CN1C[C@H]2CCCC[C@H]2C[C@H]1C(=O)NC(C)(C)C | 1.6 | 0.169 | 
CC(C)[C@H]1[C@@H](OC(=O)N[C@@H](Cc2ccccc2)[C@H](O)CN2C[C@H]3CCCC[C@H]3C[C@H]2C(=O)NC(C)(C)C)CCS1(=O)=O | 0.2 | 0.011 | 
CC(C)(C)NC(=O)[C@@H]1C[C@@H]2CCCC[C@@H]2CN1C[C@@H](O)[C@H](Cc1ccccc1)NC(=O)OCCS(C)(=O)=O |  | 1.03 | 
C[C@@H]1OCC[C@@H]1OC(=O)N[C@@H](Cc1ccccc1)[C@H](O)CN1C[C@H]2CCCC[C@H]2C[C@H]1C(=O)NC(C)(C)C | 0.4 | 0.0524 | 
CC(C)(C)NC(=O)[C@@H]1C[C@@H]2CCCC[C@@H]2CN1C[C@@H](O)[C@H](Cc1ccccc1)NC(=O)O[C@H]1CCS(=O)(=O)C1 |  | 0.075 | 0.35
CC(C)C[C@H]1[C@@H](OC(=O)N[C@@H](Cc2ccccc2)[C@H](O)CN2C[C@H]3CCCC[C@H]3C[C@H]2C(=O)NC(C)(C)C)CCS1(=O)=O | 0.4 | 0.012 | 
C[C@@H]1[C@H](OC(=O)N[C@@H](Cc2ccccc2)[C@H](O)CN2C[C@H]3CCCC[C@H]3C[C@H]2C(=O)NC(C)(C)C)CCS1(=O)=O | 0.2 | 0.0223 | 
C[C@H]1[C@@H](OC(=O)N[C@@H](Cc2ccccc2)[C@H](O)CN2C[C@H]3CCCC[C@H]3C[C@H]2C(=O)NC(C)(C)C)CCS1(=O)=O | 0.2 | 0.0114 | 
CC[C@H]1[C@@H](OC(=O)N[C@@H](Cc2ccccc2)[C@H](O)CN2C[C@H]3CCCC[C@H]3C[C@H]2C(=O)NC(C)(C)C)CCS1(=O)=O | 0.4 | 0.0054 | 
